Measurements published in patent publication US20100143364A1, “Chimeric Antibodies, Compositions and Methods for Treating Cocaine-Related Disorders” (Vybion, Inc., priority 2008, published 2010).

Assay: pharmacokinetics of cocaine in plasma after i.v. cocaine HCl
Assay type: in vivo
Details: 2-compartment model, no antibody, i.v. cocaine HCl 0.56 mg/kg
Description: The monoclonal antibodies, variants and/or derivatives of the present invention use their binding affinity for cocaine and its derivatives to reduce the concentration of cocaine or its derivatives in the brain. Infused antibodies, variants and/or derivatives also produce a dramatic dose-dependent increase in plasma cocaine concentrations and a concomitant decrease in the brain cocaine concentrations produced by an i.v. injection of cocaine HCI (0.56 mg/kg). […] The anti-cocaine antibodies, variants and/or derivatives of the invention increase the area under the plasma cocaine concentration-time curve (AUC) relative to the AUC in the absence of the anti-cocaine antibodies of the invention. The antibodies, variants and/or derivatives of the present invention decrease cocaine's volume of distribution (l/kg). However, cocaine is still rapidly cleared from plasma and its elimination is described by a single compartment model. The antibodies, variants and/or derivatives also produce a decrease in the cocaine AUC in the brain. Therefore, the effect of the antibodies on plasma and brain cocaine concentrations is predominantly due to a change in the distribution of cocaine with negligible effects on its rate of clearance.

In the case of `COC(=O)[C@H]1[C@@H](OC(=O)c2ccccc2)C[C@@H]2CC[C@H]1N2C` [cocaine], the “distribution t1/2α” value is reported as 1.9 min and the “terminal elimination t1/2β” value is reported as 26.1 min.
